| SMILES | melting point [°C] |
| --- | --- |
| C=Cc1cnc(NC(=O)C(C)C)nc1 | 110 to 112 |
| S=c1[nH]c(=S)c2[nH]cnc2[nH]1 | 196 to 200 |
| COC(=O)c1cc(S(N)(=O)=O)c(Br)cc1C | 198 to 200 |
| CCCN(CCC)CCc1ccc(O)c(NC(N)=O)c1 | 168 to 171 |
| CCOC(=O)c1c(OCC)nsc1NC(=O)N(CC)CC | 77 to 80 |
| [N-]=[N+]=Nc1ccc(CBr)cc1Cl | 75 to 77 |
| CC(=O)OC1CSC(Oc2cccc(C)n2)C(OC(C)=O)C1OC(C)=O (stereo not given) | 106 |
| Cc1cc(-n2cnnc2)cc(C=O)c1N | 250 to 252 |
| O=C(Nc1ccccc1)c1ccccn1 | 75 to 77 |
| CS(=O)(=O)O[C@@H](CO)[C@H](Cc1ccccc1)NC(=O)OCc1ccccc1 | 121 to 122 |
| CC(C)(C)c1cc(C(Cl)Cl)c(Cl)c(C(C)(C)C)c1O | 176 to 177 |
| COc1ccccc1[N+]1([O-])CCNCC1 | 157 to 160 |
| COC(=O)CCC(=O)OC1CC(C)(C)N(O)C(C)(C)C1 | 76 |
| O=[N+]([O-])c1ccc(N2CCN(c3cc(N4CCCC4)nc(N4CCCC4)n3)CC2)cc1 | 200 to 201 |
| Cc1sc2cc(CCO)ccc2c1C(=O)O | 166 to 169 |
| CC(=O)Nc1nc(N)nc(NC2CC2)n1 | 190 to 195 |
| Cc1nc2ccnn2c(Cl)c1CCCl | 87 to 88 |
| CC(C)(C)CC(=O)NN1C(=O)C(NC(=O)Nc2cccc(N)c2)CC(c2ccccc2)CC1c1ccccc1 (stereo not given) | 195 to 205 |
| NC(C(=O)O)c1ccc(CC(=O)O)cc1 (stereo not given) | 250 |
| CC(=O)Nc1ccccc1C(=O)Nc1ccc(N2CCN3CCC2CC3)cc1 | 191 |

| SMILES | melting point [°C] |
| --- | --- |
| O=C1O[C@@H](CO)[C@H]2CCc3cc(O)ccc3N12 (relative stereo) | 250 |
| O=C(CCCO)c1ccc(CCNS(=O)(=O)c2ccccc2)cc1 | 89 to 90 |
| CC1(C)Oc2ccsc2C(N2CCCCC2=O)C1O (stereo not given) | 151 to 152 |
| CN(O)C(=O)NC1CCCc2sccc21 (stereo not given) | 98 to 102 |
| O=C(O)CCCCCCCCCC#CC#Cc1ccco1 | 62.6 to 63.5 |
| CC1=NC(NC(=O)Nc2cccc(C)n2)C(=O)N(CC(=O)N2CC3CCC(CC3)C2)c2c(C)cccc21 (stereo not given) | 151 to 152 |
| CN1C(=O)C(NC(=O)NC(C)(C)C)N=C(c2ccccc2)c2ccccc21 (stereo not given) | 281 to 282 |
| Cc1cccc(NC(=S)NC2N=C(c3ccccc3F)c3ccccc3N(CC(=O)N3CC4CCC(CC4)C3)C2=O)c1 (racemic) | 129 to 134 |
| CC#CCOc1ccc([S@](=O)[C@@H](CCCCCC)C(=O)O)cc1 | 112 |
| CC(=O)OC1CSC(Oc2cc(F)ccc2-c2cccnc2)C(OC(C)=O)C1OC(C)=O (stereo not given) | 66 |
| COc1ccccc1OCC(O)CN1CCC(N2CCCNC2=O)CC1 (stereo not given) | 130 to 133 |
| O=C(NCc1ccccc1)c1ccc(C=CC(=O)N2CCc3c([nH]c4ccccc34)C2c2ccc3c(c2)OCO3)cc1 (stereo not given) | 203 |
| CC(=O)c1cccnc1N(C)C1CCN(Cc2ccccc2)CC1 | 93 to 94 |
| Cc1nc2cnccc2n1-c1ccc(O)cc1 | 265 to 267 |
| O=C(OC(c1ccccc1)c1ccccc1)C1=CCC2C1C(=O)C2(Cl)Cl (stereo not given) | 96 to 97 |
| CC(=O)C1CCC2C3CCC4CC5OC5CC4(C)C3C(OC(=O)CCl)CC12C (stereo not given) | 163 to 169 |
| c1ccc(-c2cnc3cc4ccccc4cc3n2)cc1 | 163 |
| COc1cccc(CC[C@H]2CN(Cc3ccccc3)CCN2Cc2ccccc2)c1 | 73 to 75 |
| CCCc1c(OCCCCOCCCCOc2c(C(C)=O)ccc(OCC(=O)O)c2CCC)ccc(C(C)=O)c1O | 68 to 71 |
| Oc1cccc2c1CCC(O)C2 (stereo not given) | 126 to 128 |

Results, then the molecule that gave them:

| melting point [°C] | SMILES |
| --- | --- |
| 161 to 162 | COc1cc(N)c(Cl)cc1C(=O)NCC1CNCCO1 (stereo not given) |
| 117 to 120 | COc1ccc(C(O)CNCCc2ccc(OC)c(OC)c2Cl)cc1 (stereo not given) |
| 151 to 152 | Cc1c(CNCC(C)(C)O)[nH]c2c(C)c(NC(=O)c3ccc(OC[C@@H]4CCCO4)cc3F)ccc12 |
| 176 to 178 | CCn1c(=O)c2c(nc(/C=C/c3ccc(OC)c(C)c3)n2C)n(CC)c1=O |
| 84 to 85 | CCCC(=O)Oc1cc2c(s1)CCN(C(C(=O)C1CC1)c1ccccc1F)C2 (stereo not given) |
| 225 to 228 | C=C(C)c1cc(O)cc2nc(-c3ccc(O)cc3)oc12 |
| 122 to 124 | CN(C)S(=O)(=O)c1ccc2c(c1)C(=O)c1ccccc1CC2 |
| 52 | Cc1c(F)c(F)nc(-c2ccc(C(F)(F)F)cc2)c1F |
| 265 to 266 | COc1ccc(Cl)cc1-c1c(N)c(=O)[nH]c2c(C(F)(F)F)cccc12 |
| 201 | O=C(NCc1ccc(Cl)c(Cl)c1)Nc1cccc2[nH]ccc12 |
| 157 to 158 | CN(Sc1ccccc1[N+](=O)[O-])C(=O)Nc1ccc(Cl)cc1 |
| 161 to 163 | Cc1cnc(CCCCCNc2ncc(Cc3ccc(C)nc3)c(=O)[nH]2)c(N)c1 |
| 328 to 330 | Nc1nc(N)c2c(ccc3c2ccn3-c2ccncc2)n1 |
| 147 to 148 | CCOC(=O)/C=C/c1cn(Cc2ccccc2)nc1OCc1ccc(OCc2nc(-c3ccco3)oc2C)c(OC)c1 |
| 175 to 177 | CN1C(=O)N(c2cc(Cl)cc(Cl)c2)C(=O)[C@]12CNC[C@H]2c1ccc(C#N)cc1 |
| 167 to 168 | COCOc1ccccc1-c1cc(-c2cccc(C(=O)NC3CCCN(C(=O)OC(C)(C)C)C3)c2)c(C#N)c(NC(=O)c2cccs2)n1 (stereo not given) |
| 81 to 86 | Cc1ccc(S(=O)(=O)OC2=CC3COC(O3)C2=O)cc1 (stereo not given) |
| 171 to 175 | CN1CCN(CCCNc2ncc3cc(-c4c(Cl)cccc4Cl)c(NC(=O)Nc4ccc(Br)cc4)nc3n2)CC1 |
| 159 to 160 | CN1CCCc2ccc(NC(=O)c3cc4cc(F)ccc4n3Cc3cccc(F)c3)cc21 |
| 144 to 145 | O=C(CC1CCCC1)Nc1c(C(O)(C(F)(F)F)C(F)(F)F)ccc2ccccc12 |

| melting point [°C] | SMILES |
| --- | --- |
| 138 to 140 | CCOC(=O)c1cc(S(=O)C(F)(F)C(F)F)c(-c2ccc(Cl)cc2)[nH]1 (stereo not given) |
| 106 to 107 | CCC(CC)c1nn(-c2ccc(Cl)cn2)cc1CCCOc1c(C)cccc1CC(=O)O |
| 195 to 196 | N#Cc1cc(-c2nc3cncnc3s2)ccc1Oc1ccccc1F |
| 137 to 139 | COc1ccc(CNc2ccc(C(=O)Nc3cccc4cc(C(=O)Nc5cc(C(C)(C)C)cc(NS(C)(=O)=O)c5OC)sc34)cn2)cc1 |
| 139 to 141 | Cn1nc(Br)c(I)c1-c1ccc(F)cc1Cl |
| 180 to 181 | CC1CCCC1n1ncc(-c2ccc(S(C)(=O)=O)cc2)c(-c2ccc(F)cc2)c1=O (stereo not given) |
| 259 to 261 | COc1ccc2c(c1)Cc1ccc(C(=O)O)cc1O2 |
| 141 to 142 | COc1cccc(-c2cccc3c2OC(COS(=O)(=O)c2ccc(C)cc2)C3)c1 (stereo not given) |
| 128 to 131 | CC1(C)CC(=O)C(C(=O)Nc2ccc(Cl)c(C(F)(F)F)c2)C(=O)C1 |
| 151 to 152 | Nc1ccc2c(c1)OCCNC2=O |
| 100 to 102 | Nc1ccsc1C(=O)c1ccccc1 |
| 193 to 195 | C(=C\c1cc(/C=C/c2ccc3cc[nH]c3c2)n[nH]1)/c1cccc(OCc2ccccn2)c1 |
| 201 to 205 | O=P1(c2ccc(F)cc2)c2ccccc2CN1c1ccc(Br)cc1 (stereo not given) |
| 277 to 279 | NC(=O)c1c(N)sc2ccccc2c1=O |
| 348 to 349 | CCOc1c(OC)ccc2nc3[nH]cnc(=O)c3cc12 |
| 100 to 101 | COc1ccc(C(=NOCc2ccccc2)c2cccc([N+](=O)[O-])c2)cc1 |
| 92 to 94 | Nc1cncc(C(O)c2ccccc2)c1 (stereo not given) |
| 217 to 219 | O=C(Cc1ccc(C(F)(F)F)cc1)NCc1ccc2c(c1)CN(C1CCC(=O)NC1=O)C2=O (stereo not given) |
| 139 to 141 | CC(Oc1ccc(Oc2cnc3cc(Cl)ccc3n2)cc1)C(=O)Nc1ccc(OC(F)(F)C(Cl)(Cl)Cl)cc1 (stereo not given) |
| 205 to 207 | O=C(Nc1ccc(-n2nc(C(F)(F)F)cc2C(F)(F)F)cc1)c1ccc(Br)cc1 |

| melting point [°C] | SMILES |
| --- | --- |
| 92 to 97 | CN1CCN(c2cc(Cl)cc3c2c(=O)n(Cc2ccc(Cl)cc2)c(=O)n3Cc2ccccc2)CC1 |
| 234 to 235 | COc1ccccc1C=C1NC(=S)NC1=O |
| 58 | COc1ccccc1-c1cccc(C#N)c1 |
| 176 to 190 | CCCCC(CC(=O)Nc1cc(C(N)=O)ccc1C(C)(C)C)c1cc(Cl)c(OCCCOC)cc1OC (stereo not given) |
| 110 to 111 | CCCNC(=N)Nc1nc2ccc(OC(F)(F)F)cc2s1 |
| 111 to 114 | CCn1c2ccc(C)cc2c2ccc3ccccc3c21 |
| 137 to 138 | COc1ccc2c(c1)c1c3c(ccc1n2C)C(=O)N(CCN(C)C)C3=O |
| 190 to 194 | CCN(CC)C(=O)c1c(OC)cccc1S(N)(=O)=O |
| 205 to 210 | CCc1ccc2c(c1)C=Cc1oc(C)nc1C2c1cn(-c2ccnc(NCC(=O)Nc3nc(CC(=O)O)cs3)n2)c(=O)[nH]c1=O (stereo not given) |
| 88 to 90 | CCc1noc(C)c1-c1[nH]c2ccccc2c1CN(C)C |
| 198 to 200 | O=C(O)c1nc2cc(Oc3cccc([N+](=O)[O-])c3)c([N+](=O)[O-])cc2[nH]c1=O |
| 175 to 177 | COc1cc2ncnc(N3CCc4ccc(-c5ccccc5)cc43)c2cc1OC |
| 221 to 223 | COc1ccc(C2Cc3c(cccc3C(F)(F)F)NC(=O)C2=O)cc1 (stereo not given) |
| 188 to 190 | O=[N+]([O-])c1ccc2c(c1)C=C(N1CCN(Cc3ccc4c(c3)OCO4)CC1)c1ccccc1S2 |
| 294 to 296 | O=C(Cc1ccncc1)NCc1cccc2c1C(=O)N(C1CCC(=O)NC1=O)C2=O (stereo not given) |
| 123 to 124 | ClC(=NNc1c(Cl)cc(Cl)cc1Cl)c1ccc(Cl)cc1 |
| 145 to 147 | Cc1nc(-c2ccccc2)nc(-c2cccc([N+](=O)[O-])c2)c1CN |
| 208 to 209 | Cn1c2cc(Cl)ccc2c2c(C(=O)O)nc(-c3ccccc3)nc21 |
| 118 to 120 | Cn1c(C(F)(F)F)cc(=O)n(-c2cc(OC3CCCC3)c(Cl)cc2F)c1=O |
| 109 to 110 | COC(=O)C(=O)c1ccc(OCc2ccc3ccccc3n2)cc1 |
